Key:
[1] = system: RPTEC/TERT 1 human proximal tubule cells; experiment: Imaging assay: CaP adhesion/deposition and cellular changes on RPTEC monolayers treated with 5/7 mM Ca/P; format: cell-based
Description: RPTEC/TERT 1 human proximal tubule cells (RPTEC) were cultured in T75 tissue culture flasks using ProxUp basal medium mixed with ProxUp supplements at 37° C. and 5% CO2 according to manufacturer's recommendations. Cells were used up to passage 30 and regularly tested for Mycoplasma infections. For experiments, RPTEC were cultured in 24-well plates at a seeding density of 150′000 cells/cm^2. Cell viability assessment and cell counting before seeding was performed using an automated cell counter (BioRad TC 20, Hercules, CA, USA).
For the comparison of selected IP6 analogues, ProxUp basal medium was prepared with the selected inhibitor and added to each well. Then, CaP precipitation was induced by direct addition of first, phosphate and second, calcium. Final concentrations of 7 mM phosphate and 5 mM calcium were used. Cells were incubated for 24 h at 37° C. and 5% CO2. Spiked medium was removed, and cells were washed twice with PBS before staining.
For staining, ProxUp basal medium was mixed with calcein (500 nM final concentration), EthD (6 μM final concentration), CellMask stain ([…]) and Hoechst 33342. Staining mixture was added to RPTEC and cells were incubated for 30 min in the dark at 37° C. and 5% CO2. Staining solution was removed, cells were washed with PBS once and ProxUp basal medium was added. Cells were immediately imaged after staining. Images were obtained by epifluorescence microscopy at 37° C., using a Leica CTR6000 microscope. For quantification 3 wells/condition were prepared and 3 images/well were taken. For preliminary adhesion experiments images were taken with a 10× objective, for the imaging assay 20× objective images were taken.
Multichannel images were saved as individual channel images in 8-bit tiff format. For analysis Hoechst channel images were thresholded using the triangle threshold. Touching nuclei of the binary image were further segmented using the watershed algorithm with the distance transform of the binary image as input and local maxima thereof as seeds.
For EthD channel images, high level of background noise was observed, potentially as a result of fluorescence of the CellMask stain bleeding through. […] A fixed minimum threshold was set at 60. Watershed segmentation similar to the Hoechst channel was performed to segment touching objects. For the calcein channel images adaptive thresholding by triangle thresholding achieved good detection of CaP deposits, which was validated by visual comparison to brightfield channel images. For compound experiments, an additional upper threshold was set to the minimum threshold of the pos.ctrl images for the respective experiment. Thereby an overly insensitive threshold in images with a high amount of CaP deposition was circumvented. The sum of foreground pixels of the binary image was used to calculate the total area of CaP deposits. The skimage label algorithm was used to label touching foreground regions.
To segment images to single cells the CellMask channel image was first binarized by adaptive thresholding, using a blocksize of 35, followed by median filtering. Binary erosion was performed to shrink the outlines. A version of watershed algorithm was used to segment the whole image into single cells. To this end, the distance transform of the binary erosion image was used as input image and seeds were set to the local maxima of the Hoechst channel image. While this protocol allowed for an approximation of single cell morphology, further improvements of both analytical and experimental staining procedure would be necessary to achieve more accurate results.
Additionally, texture features of calcein and CellMask channel images were extracted. Grey level co-occurrence matrices were calculated using one set offset of 5 pixel and an angle of 90°. Here, the use of larger offsets could improve the detection of changes in large-scale features, e.g. CaP clustering sites. […]

[2] = system: RPTEC/TERT 1 human proximal tubule cells; experiment: RNA sequencing of RPTEC treated with Ca/P and compound; format: cell-based; conditions: 50 μM compound
Description: RNA sequencing Cells were cultured as described in the imaging assay and treated with a medium control (ProxUp basal medium containing 1/1 mM Ca/P), 5/7 mM Ca/P, 5/7 mM Ca/P in medium containing 50 μM (OEG2)2-IP4 or 50 μM (OEG2)2-IP4 in medium for 24 h. Total RNA was extracted using the RNeasy kit (Quiagen) according to the manufacturer's instructions. Three wells per sample group were prepared and total RNA extracted of those 3 wells pooled. mRNA was purified and RNAseq library was prepared using the TrueSeq RNA kit (Illumina). Sequencing was performed on a Novaseq 6000 (Illumina). Reads were aligned to the human reference genome GRCh38.p10 using the STAR tool (https://github.com/alexdobin/STAR) and transcripts quantified using the Kallisto program (42). Ensembl release 91 was used for the gene model definitions. […] The heatmap was plotted using R software. Overrepresentation analysis was performed on Webgestalt.org (v2019) (43), using differentially expressed genes with p≤0.01, log 2fold change≥0.5. Differential expressed genes were compared to the gene ontology—biological process functional database and as a reference set the human genome—protein coding was used. The weighted set cover of the top 30 enriched categories was plotted. For comparison of expression levels of the selected genes, the fragments per kilobase of exon model per million reads mapped (FPKM) were used. Three independent experiments were performed. RNA sequencing raw data is available on the EMBL Nucleotide Sequence Database (ENA) under the accession number PRJEB38397.

[3] = previous study (Kletzmayr et al. 2020); cited from earlier work
[4] = reported, Schantl et al. 2020; cited from earlier work
[5] = 7 mM phosphate, 5 mM calcium, 24 h

SMILES: COCCOCCO[C@@H]1C(OP(=O)(O)O)[C@H](OCCOCCOC)[C@@H](OP(=O)(O)O)C(OP(=O)(O)O)[C@H]1OP(=O)(O)O (stereo partly drawn) [(OEG2)2-IP4]
- concentration achieving complete inhibition of CaP adhesion [1, 5]: 50 µM
- concentration down to which CaP adhesion was drastically reduced [1, 5]: 12.5 µM
- single cell area compared to the positive ctrl ([1]; 6-50 μM compound, 5/7 mM Ca/P): dose-dependently reduced
- single cell solidity compared to the positive ctrl ([1]; 6-50 μM compound, 5/7 mM Ca/P): increased
- total cell count/field of view compared to the positive ctrl ([1]; 6-50 μM compound, 5/7 mM Ca/P): increased
- number of dead cells compared to the positive ctrl ([1]; 6-50 μM compound, 5/7 mM Ca/P, EthD staining): dose-dependently reduced
- image feature profile vs positive ctrl (+5/7 mM Ca/P) and negative ctrl ([1]; 6-50 μM compound, 24 h): dose-dependent reversal
- total CaP area compared to the positive ctrl ([1]; 6 and 13 μM compound, 5/7 mM Ca/P, calcein staining): reduction
- Ca/P-induced change in gene expression profile ([2]; 5/7 mM Ca/P, 24 h): prevented
- differentially expressed genes, Ca/P+compound vs. compound only ([2]; fold change ≥1.5 and p≤0.05): 77
- differentially expressed genes, Ca/P+compound vs. negative ctrl ([2]; fold change ≥1.5 and p≤0.05): 76
- differentially expressed genes, Ca/P+compound vs. positive ctrl ([2]; fold change ≥1.5 and p≤0.05): 2437
- differentially expressed genes, compound only vs. positive ctrl ([2]; fold change ≥1.5 and p≤0.05): 2935
- efficacy on CaOx crystallization in solution [3]: limited efficacy
- pharmacokinetic profile [4]: favorable

Source: patent publication US20240000811A1, “INOSITOL HEXAKISPHOSPHATE ANALOGUES FOR TREATMENT OF CALCIFICATION ASSOCIATED KIDNEY DISEASES” (INOSITEC AG, priority 2020, published 2024)
